Experimental data from ChEMBL document CHEMBL4354807, “Natural Product Albiziabioside A Conjugated with Pyruvate Dehydrogenase Kinase Inhibitor Dichloroacetate To Induce Apoptosis-Ferroptosis-M2-TAMs Polarization for Combined Cancer Therapy” (J Med Chem, 2019).
pIC50: −log10 of the molar value. Calls of active or inactive are those of the source. No cut-off for these calls is given here.

Key:
A-375 [1] = test: Synergistic anticancer activity against human A375 cells expressing assessed as combination index after 72 hrs by MTT assay; assay type: functional
MCF7 [2] = test: Induction of ferroptosis in human MCF7 cells assessed as reduction in cellular GSH level at 2 uM after 24 hrs by microplate reader assay; assay type: functional, cell-based
[3] = Toxicity in BALB/c nude mouse xenografted with human MCF7 cells assessed as effect on liver at 2 mg/kg, iv administered every 2 days for 2 weeks measured after 14 days by hematoxylin and eosin staining based histopathological analysis; assay type: organism-based; conditions: in vivo, 336 h
Mus musculus [4] = test: Modulation of tumor immunosuppressive activity in BALB/c mouse xenografted with mouse 4T1 cells assessed as increase in IFNgamma expression in tumor administered intratumorally every other day for 14 days measured at 2 days post-last dose by ELISA; assay type: functional, organism-based
A-375 [5] = test: Anticancer activity against human A375 cells expressing PDK assessed as reduction in cell viability after 72 hrs by MTT assay; assay type: functional, cell-based; conditions: A-375, 72 h
[6] = biological target: [Pyruvate dehydrogenase (acetyl-transferring)] kinase isozyme 1, mitochondrial (Homo sapiens) (UniProt Q15118); test: Inhibition of PDK1 (unknown origin) in PBS buffer using PDK tide as substrate at pH 7.4 measured after 90 mins in presence of ATP by ADP-Glo luminescent kinase assay
4T1 [7] = test: Reversal of immunosuppression against mouse 4T1 cells implanted in BALB/c mouse assessed as decrease in weight of distal tumor at 2 mg/kg administered intratumorally every 2 days for 2 weeks measured after 14 days; assay type: functional, organism-based
4T1 [8] = test: Reversal of immunosuppression against mouse 4T1 cells implanted in BALB/c mouse assessed as decrease in weight of primary tumor at 2 mg/kg administered intratumorally every 2 days for 2 weeks measured after 14 days; assay type: functional, organism-based
[9] = Toxicity in BALB/c nude mouse xenografted with human MCF7 cells assessed as effect on blood urea nitrogen at 2 mg/kg, iv administered every 2 days for 2 weeks measured after 14 days; assay type: organism-based; conditions: in vivo, 336 h
MCF7 [10] = test: Induction of ROS generation in human MCF7 cells assessed as ROS level at 2 uM after 24 hrs by DCFDA-fluorescence based flow cytometry (reference value: 6.57 %); assay type: functional
MCF7 [11] = test: Induction of mitochondrial dysfunction in human MCF7 cells assessed as cell population with mitochondrial membrane potential collapse at 2 uM after 24 hrs by JC1 staining-based FACScalibur flow cytometry analysis (reference value: 2.74 %); assay type: functional
MCF7 [12] = test: Downregulation of PDK expression in human MCF7 cells after 48 hrs by Western blot analysis; assay type: functional, cell-based
4T1 [13] = test: Anticancer activity against mouse 4T1 cells expressing PDK assessed as reduction in cell viability after 72 hrs by MTT assay; assay type: functional, cell-based; conditions: 4T1, 72 h
MCF7 [14] = test: Induction of apoptosis in human MCF7 cells assessed as upregulation of cytochrome C expression at 2 uM after 48 hrs by Western blot analysis relative to control; assay type: functional
MCF7 [15] = test: Antitumor activity against human MCF7 cells xenografted in BALB/c nude mouse assessed as suppression of tumor progression at 2 mg/kg, iv administered every two days for two weeks measured after 14 days relative to control; assay type: functional
Mus musculus [16] = test: Modulation of tumor immunosuppressive activity in BALB/c mouse xenografted with mouse 4T1 cells assessed as increase in IFNgamma expression in serum administered intratumorally every other day for 14 days measured at 2 days post-last dose by ELISA; assay type: functional, organism-based
[17] = Toxicity in BALB/c nude mouse xenografted with human MCF7 cells assessed as effect on kidney at 2 mg/kg, iv administered every 2 days for 2 weeks measured after 14 days by hematoxylin and eosin staining based histopathological analysis; assay type: organism-based; conditions: in vivo, 336 h
[18] = Toxicity in BALB/c nude mouse xenografted with human MCF7 cells assessed as effect on heart at 2 mg/kg, iv administered every 2 days for 2 weeks measured after 14 days by hematoxylin and eosin staining based histopathological analysis; assay type: organism-based; conditions: in vivo, 336 h
4T1 [19] = test: Induction of M2-TAM polarization in mouse 4T1 cells assessed as decrease in MRC1 mRNA expression at 2 uM after 48 hrs by Western blot analysis relative to control; assay type: functional
[20] = Selectivity index, ratio IC50 for cytotoxicity against human LO2 cells assessed as reduction in cell viability after 72 hrs by MTT assay to IC50 for anticancer activity against mouse 4T1 cells assessed as reduction in cell viability after 72 hrs by MTT assay
MCF7 [21] = test: Induction of ferroptosis in human MCF7 cells assessed as cell death at 2 uM pretreated with ferroptosis inhibitor ferrostatin-1 followed by compound treatment by MTT assay; assay type: functional, cell-based
MCF7 [22] = test: Anticancer activity against human MCF7 cells overexpressing PDK assessed as reduction in cell viability after 72 hrs by MTT assay; assay type: functional, cell-based; conditions: MCF7, 72 h
[23] = Toxicity in BALB/c nude mouse xenografted with human MCF7 cells assessed as effect on lung at 2 mg/kg, iv administered every 2 days for 2 weeks measured after 14 days by hematoxylin and eosin staining based histopathological analysis; assay type: organism-based; conditions: in vivo, 336 h
L02 [24] = test: Cytotoxicity against human LO2 cells assessed as reduction in cell viability after 72 hrs by MTT assay; assay type: cell-based; conditions: L02, 72 h
L02 [25] = test: Cytotoxicity against human LO2 cells assessed as combination index after 72 hrs by MTT assay; assay type: cell-based; conditions: l02, 72 h
[26] = Selectivity index, ratio IC50 for cytotoxicity against human LO2 cells assessed as reduction in cell viability after 72 hrs by MTT assay to IC50 for anticancer activity against human A375 cells assessed as reduction in cell viability after 72 hrs by MTT assay; assay type: toxicity, cell-based; conditions: LO2 cells versus A375 cells, read-out: Ratio IC50
[27] = Toxicity in BALB/c nude mouse xenografted with human MCF7 cells assessed as effect on spleen at 2 mg/kg, iv administered every 2 days for 2 weeks measured after 14 days by hematoxylin and eosin staining based histopathological analysis; assay type: organism-based; conditions: in vivo, 336 h
MCF7 [28] = test: Induction of ferroptosis in human MCF7 cells assessed as cell death at 2 uM pretreated with exogenous iron Fe2+ followed by compound treatment by MTT assay; assay type: functional, cell-based
MCF7 [29] = test: Induction of mitochondrial dysfunction in human MCF7 cells assessed as cell population with intact mitochondrial membrane potential at 2 uM after 24 hrs by JC1 staining-based FACScalibur flow cytometry analysis (reference value: 97%); assay type: functional
[30] = Toxicity in BALB/c nude mouse xenografted with human MCF7 cells assessed as mouse death at 2 mg/kg, iv administered every 2 days for 2 weeks measured after 14 days; assay type: organism-based; conditions: in vivo, 336 h
MCF7 [31] = test: Cytotoxicity against human MCF7 cells assessed as cell death at 2 uM pretreated with Z-VAD-fmk followed by compound addition by MTT assay; assay type: functional, cell-based
[32] = Cytotoxicity against human HBMEC cells assessed as reduction in cell viability after 72 hrs by MTT assay; assay type: cell-based
[33] = biological target: [Pyruvate dehydrogenase (acetyl-transferring)] kinase isozyme 1, mitochondrial (Homo sapiens) (UniProt Q15118); test: Inhibition of PDK1 (unknown origin) expressed in human MCF7 cells using PDK tide as substrate measured after 90 mins in presence of ATP by ADP-Glo luminescent kinase assay
HCT-116 = test: Synergistic anticancer activity against human HCT116 cells expressing assessed as combination index after 72 hrs by MTT assay; assay type: functional
MCF7 [34] = test: Induction of ferroptosis in human MCF7 cells assessed as cell death at 2 uM pretreated with antioxidant vitamin E followed by compound treatment by MTT assay; assay type: functional, cell-based
[35] = Stability of compound in plasma (unknown origin) 37 degree C measured after 2 hrs by HPLC analysis; assay type: ADME, cell-free

Which CI (A-375 [1]) does the source give for `CC1(C)CC[C@]2(C(=O)O)CC[C@]3(C)C(=CC[C@@H]4[C@@]5(C)CC[C@H](O[C@@H]6O[C@H](CO[C@@H]7OC[C@H](O)[C@H](O)[C@H]7O)[C@@H](O)[C@H](O)[C@H]6NC(=O)C(Cl)Cl)C(C)(C)[C@@H]5CC[C@]43C)[C@@H]2C1` here?
The CI was 0.7.

And the Activity (MCF7 [2])?
Its Activity is “Active”.

And the Activity [3]?
The Activity was “Non-Toxic”.

And the Activity (Mus musculus [4])?
Its Activity is “Active”.

And the pIC50 (A-375 [5])?
The pIC50 was 5.42.

What about the inhibition [6] of the same compound?
The inhibition was “inactive”.

What about the Activity (4T1 [7]) of the same compound?
The Activity was “Active”.

What about the Activity (4T1 [8]) of the same compound?
The Activity was “Active”.

What about the Activity [9] of the same compound?
Its Activity is “Non-Toxic”.

What about the Activity (MCF7 [10]) of the same compound?
The Activity was 44.19%.

And the Activity (MCF7 [11])?
Its Activity is 46.39%.

And the Activity (MCF7 [12])?
The Activity was “Dose-dependent effect”.

What about the pIC50 (4T1 [13]) of the same compound?
Its pIC50 is 5.88.

What about the “fold change (FC)” value (MCF7 [14]) of the same compound?
The value was 4.4.

What about the Activity (MCF7 [15]) of the same compound?
The Activity was 100%.

What about the Activity (Mus musculus [16]) of the same compound?
Its Activity is “Active”.

And the Activity [17]?
Its Activity is “Non-Toxic”.

And the Activity [18]?
The Activity was “Non-Toxic”.

What about the “fold change (FC)” value (4T1 [19]) of the same compound?
Its value is 3.4.

What about the “Ratio IC50” value [20] of the same compound?
Its value is 40.56.

What about the Activity (MCF7 [21]) of the same compound?
The Activity was “inactive”.

And the pIC50 (MCF7 [22])?
Its pIC50 is 6.37.

What about the Activity [23] of the same compound?
The Activity was “Non-Toxic”.

And the pIC50 (L02 [24])?
Its pIC50 is 4.27.

What about the CI (L02 [25]) of the same compound?
Its CI is 2.13.

And the selectivity ratio at 72 h [26]?
Its selectivity ratio at 72 h is 14.1.

And the Activity [27]?
Its Activity is “Non-Toxic”.

And the Activity (MCF7 [28])?
The Activity was “Active”.

And the Activity (MCF7 [29])?
The Activity was 53.38%.

What about the Activity [30] of the same compound?
The Activity was “Non-Toxic”.

And the Activity (MCF7 [31])?
The Activity was “inactive”.

And the pIC50 [32]?
The pIC50 was 4.42.

And the inhibition [33]?
Its inhibition is “Active”.

And the CI (HCT-116)?
Its CI is 0.22.

And the Activity (MCF7 [34])?
Its Activity is “inactive”.

And the Stability [35]?
The Stability was “Stable”.
